# Read-outs that look alike come from different tables or passages of the source.
# Assays:
# [1] = test system: MycG4 (MycPu22 DNA); assay: FRET-melting assay (thermal stabilization of MycG4); format: binding, human; conditions: FIG. 4
# Description: To confirm the stabilizing effect of indenoisoquinolines on MycG4, the Tm values of MycG4 were measured in the presence of indenoisoquinoline compounds in 10 mM K^+ using dual-3′-FAM- and 5′-TAMRA-labeled MycPu22 DNA by FRET-melting experiments. MycPu22 DNA forms a single MycG4 structure and was used for NMR structure determination (FIG. 1B, right).^43 Therefore, MycPu22 provides the best molecular system for MycG4 and was used in all the subsequent experiments. […] (FIG. 2B). A clear positive correlation was observed between the indenoisoquinolines' ability to induce MycG4 formation and to increase its thermal stability (FIG. 2C).
# FRET-melting experiments. The stock solution containing 100 μM 3′-TAMRA (Ex. 555 nm/Em. 580 nm), 5′-FAM (Ex. 490 nm/Em. 520 nm) dual-labeled MycPu22 DNA sequence was first diluted to 2 μM using 7.5 mM KCl, 2.5 mM phosphate buffer, pH 7.0. […] With gradually increasing temperature, the MycPu22 DNA is unfolded from the G4 form to a single-stranded conformation where the FAM is far apart to the TAMRA, which results in a high FAM fluorescence. Melting curves for the determination of Tm were then obtained by recording FAM fluorescence with increasing temperatures from 25 to 95° C. at a rate of 0.9° C./min using a QuantStudio 6 Flex Real-Time PCR System. The Tm values were determined by the maximum of the first derivative plot of the melting curves. […]
# [2] = test system: NCI-60 cancer cell lines; assay: NCI-60 cancer cell line drug screen (GI50, MGM); format: cell-based, human; conditions: Homo sapiens; for GI50: read-out: Antiproliferative Activities [GI50 (μM)]
# Description: Cancer cells were incubated with the test compounds at five concentrations ranging from 100 μM to 10 nM for 48 h. […] The approximate average of GI50 values across the entire panel of NCI-60 cancer cell lines for each compound was recorded as the MGM value.
# [3] = test system: MYC protein expression in MCF-7 breast cancer cells; assay: Western blotting of MYC protein level in MCF-7 cells; format: cell-based, human; conditions: Homo sapiens, MCF7; western blotting, MCF-7 cells, 0.5, 1, 2, and 4 μM, 24 hours; read-out: MYC Inhibition
# Description: MCF-7 cells were incubated with each compound at four concentrations (0.5, 1, 2, and 4 μM) for 24 hours, and the MYC protein levels were measured (FIG. 3A and FIGS. 12 A to 12 F).
# Cells were incubated at 37° C. with 5% CO2.
# The gels were cut into strips that contained the proteins of interest and transferred to nitrocellulose membrane (I323002, Invitrogen) using an iBlot 2 Dry Transfer Device (Invitrogen). Immunoblotting was carried out according to standard procedures using the ECL detection method. The membrane was hybridized with the following antibodies: monoclonal anti-MYC (1:1000 dilution; rabbit, Cell Signaling Technology), monoclonal anti-GAPDH (1:2000 dilution; rabbit, Cell Signaling Technology).
MycG4 binding and stabilizing activity (SAR) [1],Structure (SMILES),"GI50 ([2]; A549, Non-Small Cell Lung Cancer, A549/ATCC)","GI50 ([2]; CCRF-CEM, Leukemia, CCRF-CEM)","GI50 ([2]; COLO 205, Colon Cancer, COLO 205)","GI50 ([2]; EKVX, Non-Small Cell Lung Cancer, EKVX)","GI50 ([2]; HCC 2998, Colon Cancer, HCC-2998)","GI50 ([2]; HCT-116, Colon Cancer, HCT-116)","GI50 ([2]; HL-60, Leukemia, HL-60(TB))","GI50 ([2]; HOP-92, Non-Small Cell Lung Cancer, HOP-92)","GI50 ([2]; Leukemia, SR)","GI50 ([2]; MOLT-4, Leukemia, MOLT-4)","GI50 ([2]; NCI-H23, Non-Small Cell Lung Cancer, NCI-H23)","GI50 ([2]; NCI-H226, Non-Small Cell Lung Cancer, NCI-H226)","GI50 ([2]; NCI-H322M, Non-Small Cell Lung Cancer, NCI-H322M)","GI50 ([2]; NCI-H460, Non-Small Cell Lung Cancer, NCI-H460)","GI50 ([2]; NCI-H522, Non-Small Cell Lung Cancer, NCI-H522)","GI50 ([2]; RPMI-8226, Leukemia, RPMI-8226)",mean GI50 across NCI-60 panel (MGM) ([2]; average of GI50 values across the entire panel of NCI-60 cancer cell lines),minimal effective concentration [3]
weakened,O=C1c2ccccc2-c2c1c1ccccc1c(=O)n2CCCN1CCOCC1 [Compound 16],–,–,–,–,–,–,–,–,–,–,–,–,–,–,–,–,–,–
medium,COc1cc2c3c(n(CCCN(C)C)c(=O)c2cc1OC)-c1cc2c(cc1C3=O)OCO2 [Compound 47],0.89 µM,< 0.01 µM,0.94 µM,1.46 µM,0.13 µM,0.22 µM,1.6 µM,1.3 µM,< 0.01 µM,< 0.01 µM,0.19 µM,1.4 µM,1.56 µM,0.28 µM,0.31 µM,0.3 µM,390 nM,2 µM

# From patent US20210382058A1, “PATIENT SELECTION FOR TREATMENT OF MYC POSITIVE CANCERS WITH INDENOISOQUINOLINES” (Purdue Research Foundation, priority 2020, published 2021)
